Assay results published in PMC4757834, “The N-terminal sequence of the extrinsic PsbP protein modulates the redox potential of Cyt b559 in photosystem II” (Scientific Reports, 2016).
Where no end group is shown, it is not given here.

How the values were obtained:
[1] = molecular target: PsbE protein, the α subunit of Cytochrome b559 (spinach (endogenous in PSII membranes from spinach leaves)) (UniProt P69383)
[2] = tested on: OEC (Mn4CaO5 cluster) in PSII; test: Light-induced S2/S1 FTIR difference spectroscopy; assay type: biochemical, spinach; conditions: peptide:PSII 200:1, pH 6.0, 5 mM CaCl2, 5 mM NaCl, 10 °C, 1800–1200 cm^-1
Description: FTIR measurements were performed following the method reported previously[20][61] with some modifications. NaCl-washed PSII membranes were suspended (2.5 mg Chl ml^−1) in a buffer containing 4 mM MES-NaOH, 40 mM sucrose, 5 mM CaCl2, and 5 mM NaCl (pH 6.0). […] The resultant sample film was moderately hydrated by sealing the cell using another CaF2 plate and a silicone spacer (0.5 mm in thickness) enclosing 2 μl of 40% (v/v) glycerol solution without touching the sample. The sample temperature was adjusted to 10 °C by circulating cold water in a copper holder. Light-induced S2-minus-S1 difference spectra (S2/S1 spectra) were recorded using a spectrophotometer (VERTEX 80, Bruker Optics) equipped with an MCT detector (InfraRed D313-L) at 4 cm^−1 resolution (20, 61). A Ge filter to cut IR light at >2200 cm^−1 (Andover, 4.50ILP-25) was placed in the IR path in front of the sample to improve the signal-to-noise ratios of spectra as well as to block a He-Ne laser beam from the interferometer. Illumination was provided by a Q-switched Nd:YAG laser (INDI-40-10; 532 nm, ~ 7 ns full width at half-maximum, and ~ 7 mJ pulse^–1 cm^–2 at the sample surface; Spectra-Physics, UK). Single-beam spectra were recorded with 100 scans (~50-s accumulation) before and after single-flash illumination to calculate a difference spectrum, and the measurements were repeated 20 times with an interval of 25 min.

[3] = tested on: Cyt b559 in PSII; test: Redox forms of Cyt b559 by stepwise reductive titration (absorption difference spectroscopy), reconstituted NaCl-washed PSII membranes; assay type: biochemical, spinach
Excerpt: Hydroquinone-reduced minus ferricyanide-oxidized (1), ascorbate-reduced minus ferricyanide-oxidized (2), and dithionite-reduced minus ferricyanide-oxidized (3) difference spectra were used to estimate the amount of the HP, IP, and LP forms of Cyt b559, respectively. Each spectrum was an average of three independent measurements and normalized to the peak of the dithionite-reduced minus ferricyanide-oxidized difference spectrum. (B) Relative content of the HP, IP, and LP forms of Cyt b559 determined by stepwise reductive titration. Total amount of Cyt b559 is set as 100%. […] (*p < 0.05, Student’s t-test); n = 3, error bars = SEM.
PSII membranes, isolated from spinach leaves[56], were treated for 30 min with the buffer containing 1.5 M NaCl on ice to remove PsbP and PsbQ. […] In the control, MES buffer, without any peptide fragments, was used. After incubation for 1 h on ice, the reconstituted PSII samples were carried forward to determine the state of their redox forms of Cyt b559, oxygen-evolving activity, FTIR analysis and TL measurements. Where indicated, PSII samples were washed once, before the analysis, with buffer (25 mM MES-NaOH, pH 6.5, 5 mM NaCl, 5 mM CaCl2, 0.4 M sucrose).
PSII membranes were suspended at a Chl concentration of 75 μg ml^−1 in buffer (25 mM MES-NaOH, pH 6.5, 5 mM NaCl, 5 mM CaCl2, 0.4 M sucrose) and the different redox forms of Cyt b559 were determined at a wavelength of 559 nm, from the reduced minus oxidized difference absorption spectra between 520 and 580 nm, recorded as described previously[34][35][57] using a spectrophotometer equipped with a head-on photomultiplier tube (UV-2600; Shimadzu, Kyoto, Japan). Complete oxidation of Cyt b559 was achieved by treatment with 2 mM potassium ferricyanide (midpoint redox potential Em ~ 430 mV) followed by its stepwise reduction. The reduction of the HP form (Em ~ 400 mV), the IP form (Em ~ 200 mV), and the LP form (Em ~ 50 mV) of Cyt b559[7][58][59][60] were performed by adding 4 mM hydroquinone (Em ~ 280 mV), 5 mM sodium ascorbate (Em ~ 60 mV), and 10 mM sodium dithionite (Em ~ −660 mV) in a step-wise manner. The absorption difference at 559 nm, in difference spectra of hydroquinone-reduced minus ferricyanide-oxidized, ascorbate-reduced minus hydroquinone-reduced, and dithionite-reduced minus ascorbate-reduced Cyt b559, enable the content of HP, IP, and LP form of Cyt b559, to be deduced, respectively. Baselines were set by drawing a straight line between absorption differences at 540 and 580 nm.

[4] = tested on: PSII; test: Oxygen-evolving activity of reconstituted PSII membranes (Clark-type oxygen electrode); assay type: biochemical, spinach; conditions: NaCl-washed PSII membranes, peptide:PSII 50:1 to 200:1, 5 mM CaCl2 and 5 mM NaCl, pH 6.5, 0.4 mM DCBQ; membranes without reconstitution = 100% (251 ~ 317 μmol O2 mg Chl^-1 h^-1); n = 3
Description: PSII oxygen-evolving activity was measured in the presence of 5 mM CaCl2 and 5 mM NaCl, and the rate of oxygen-evolution of PSII membranes without reconstitution was set at 100% (251 ~ 317 μmol O2 mg Chl^−1 h^−1 in independent experiments); n = 3, error bars = SEM. […] Oxygen-evolving activity here was measured in the presence of 5 mM CaCl2 and 5 mM NaCl, and the rate of oxygen-evolution for the PSII membranes without reconstitution (the control) was set at 100% (261 μmol O2 mg Chl^−1 h^−1).
PSII membranes, isolated from spinach leaves[56], were treated for 30 min with the buffer containing 1.5 M NaCl on ice to remove PsbP and PsbQ. […] In the control, MES buffer, without any peptide fragments, was used. After incubation for 1 h on ice, the reconstituted PSII samples were carried forward to determine the state of their redox forms of Cyt b559, oxygen-evolving activity, FTIR analysis and TL measurements. Where indicated, PSII samples were washed once, before the analysis, with buffer (25 mM MES-NaOH, pH 6.5, 5 mM NaCl, 5 mM CaCl2, 0.4 M sucrose). The oxygen-evolving activity of each PSII membrane sample was measured in this same buffer using a Clark-type oxygen-electrode (Hansatech, UK) in the presence of 0.4 mM 2,6-dichloro-p-benzoquinone (DCBQ) as an electron acceptor.

| Substance | content of the HP form of Cyt b559 in NaCl-washed PSII membranes after reconstitution at 4:1 (PsbP:PSII); about 34% without reconstitution [1] | S2/S1 FTIR spectral intensity [2] | Relative content of the HP form of Cyt b559 ([3]; NaCl-washed PSII membranes reconstituted with PsbP proteins at 4:1 or peptides at 200:1 (to PSII), 1 h on ice, 25 mM MES-NaOH pH 6.5, 5 mM NaCl, 5 mM CaCl2, 0.4 M sucrose, 559 nm, total Cyt b559 = 100%, n = 3 (controls: intact 59.3, NaCl-washed 33.7)) | Relative content of the LP form of Cyt b559 ([3]; NaCl-washed PSII membranes reconstituted with PsbP proteins at 4:1 or peptides at 200:1 (to PSII), 1 h on ice, pH 6.5, total Cyt b559 = 100%, n = 3 (controls: intact 8.7, NaCl-washed 10.4)) | Relative content of the IP form of Cyt b559 ([3]; NaCl-washed PSII membranes reconstituted with PsbP proteins at 4:1 or peptides at 200:1 (to PSII), 1 h on ice, pH 6.5, total Cyt b559 = 100%, n = 3 (controls: intact 32.0, NaCl-washed 55.9)) | Restoration of HP Cyt b559 (in words) ([3]; reconstituted NaCl-washed PSII membranes, pH 6.5) | Rate of oxygen evolution (in words) [4] |
| --- | --- | --- | --- | --- | --- | --- | --- |
| recombinant PsbP-WT protein from Spinacia oleracea (from UniProt P12302 82-267) (natural protein) | 58% |  |  |  |  |  |  |
| pN15-∆A^1: pN15 lacking its N-terminal Ala^1 (YGEAANVFGKPKKN-NH2; UniProt P12302 83-96, looked up, fragment) |  | moderate inhibitory effect | 38.2% | 13.6% | 48.2% | This effect was not observed | none of these mutated pN15 fragments showed any inhibitory effect on oxygen evolution |
